In data set [1] the test system is Leishmania major. Also on record: method as in PMID 20235747. To be noted: cited from earlier work.
Data set [2] relates to Leishmania donovani promastigotes (clinical isolate). In words: in vitro antipromastigote activity test (AlamarBlue/resazurin). The data set is classed as cell-based. The note with it: for IC50: Leishmania donovani. How it is done: The antipromastigote activities of the synthesized compounds and the existing antileishmanial drugs (miltefosine and amphotericin B deoxycholate) were assessed using the clinical isolate of the Leishmania donovani strain, which is known to cause VL worldwide. The soluble, stable and non-toxic fluorescence dye, AlamarBlue® (resazurin) (Trek Diagnostic Systems, Inc., Cleveland, OH, USA) was used to quantitatively determine the viability of Leishmania donovani and compute the IC50 value of target compounds and the reference drugs. Only metabolically active cells can reduce resazurin and convert into fluorescent resorufin. Thus, the fluorescent intensity of resorufin is directly correlated to the number of viable Leishmania donovani cells. […] Inspired by its promising antileishmanial outcome, (E)-2-(4-nitrostyryl)-3-phenylquinazolin-4(3H)-one (6) was subjected to molecular docking study by fitting it in Lm-PTR1 active site to gain an insight about the types of interactions between the simulated enzyme and itself.
RPMI-1640, 10% heat-inactivated fetal calf serum (HIFCS), 1% penicillin–streptomycin, and 1% L-glutamine were supplied to make a complete culture medium. The Leishmania donovani isolate was grown first on Novy-MacNeal-Nicolle (NNN) medium and then in tissue-culture flasks containing RPMI 1640 medium supplemented with 10% HIFCS and 1% 100 IU penicillin/mL-100 µg/mL streptomycin solution at 22 ℃ for promastigotes.
Stock solutions of 10 mg/mL of the synthesized compounds were prepared by dissolving each compound in DMSO for the antileishmanial activity testing. Stock solutions were diluted using complete RPMI to obtain aliquots of 10 µg/mL. Then, three-fold serial dilution with complete RPMI gave the final six working concentrations (10, 3.33, 1.11, 0.37, 0.12, and 0.04 µg/mL) of each of the synthesized compounds. Amphotericin B deoxycholate and miltefosine, which were used as positive controls for the comparison of the antileishmanial activities of the test compounds, were also made in three-fold serial dilutions. All the prepared drugs were stored at − 20 °C and retrieved only during use.
Prior to the in vitro antipromastigote testing, serial concentrations of the target compounds were prepared by implementing three-fold dilutions. Then, in a 96-well microtiter plate, 100 µl of each of the three-fold serial dilutions of the target compounds were added in triplicate wells. Then 100 µl of Leishmania donovani suspension containing 3.0 × 10^6 promastigotes per milliliter were added in duplicates. In this experiment, the media and DMSO served as a negative control. Moreover, the concentration of DMSO was maintained below 1% of the target compound preparation to avoid the potential growth inhibition and interference effect of DMSO in the entire antipromastigote assay. Properly labelled plates which belong to the negative-control group, positive-control groups (treated with miltefosine and amphotericin B deoxycholate) and target compounds were then kept in a humidified atmosphere at 22 ℃ under 5% CO2 […]. To determine the viability Leishmania donovani isolates after the respective treatment, 10 µL of fluorochrome AlamarBlue® solution prepared by dissolving 12.5 mg resazurin in 100 mL of distilled water was added to each well and incubated for 4 h. Then, the fluorescence intensity of each well was determined using Victor3 Multilabel Counter (PerkinElmer, Waltham, MA, USA), at 530 nm and 590 nm, excitation and emission wavelengths, respectively. The IC50 values of the negative-control, positive-control groups and test-groups were determined from sigmoidal dose-response curves using GraphPad Prism 5.0 software (GraphPad Software, Inc., San Diego, CA, USA).
On the technique in general: The colour change of resazurin is a common sign of viable cells or microbes.

The test system of data set [3] is Plasmodium berghei ANKA strain. Description: four-day standard suppressive test in infected mice. The data set is classed as in vivo, Plasmodium berghei (Swiss albino mice). The note with it: for inhibition in vivo at 48.46 µmol/kg: Plasmodium berghei, 96 h, read-out: % Suppression; for % Parasitemia: smear on 5th day, mean ± SD. The source says: In the present study, the in vivo antimalarial activities of the synthesized compounds were investigated using a mouse model which is ideal to elucidate the prodrug effects of the target compounds triggered by metabolic activation and eradication of infection due to the potential involvement of the immune system. To achieve a steady state infection against the experimental animals, Plasmodium berghei ANKA strain served as a parasite in the experiment and the effects of the target compounds was assessed by the standard four-day suppressive test (often employed to evaluate early infections) in terms of percent inhibition of parasitemia which is recognized as most trustworthy parameter in vivo antimalarial studies. Herein, the standard antimalarial drug chloroquine phosphate (CQ) and equimolar amounts (48.46 µmol/Kg) of the target 3-aryl-2-styry substituted-4(3H)-quinazolinone derivatives were administered orally and the % suppression, parasitemia level, and the survival time of mice were compared against mice treated with a formulation containing a solution of 7% Tween 80, and 3% ethanol in distilled water (control group).
Swiss albino male mice of weight 20–32 g and age 6–8 weeks were used for the antimalarial activity and acute toxicity tests. Plasmodium berghei ANKA strain is used to infect the mice for a four-day suppressive test, were obtained from Biomedical Laboratory, Department of Biology, Faculty of Science, AAU. Leishmania donovani isolate used in this study was obtained from the Leishmania Diagnosis and Research Laboratory (LDRL) culture bank, School of Medicine, AAU.
The antimalarial activities of the target compounds were assessed by the four-day standard suppressive test against mice infected with Plasmodium berghei. The mice were acclimatized to the experimental conditions in the animal house of Biomedical Laboratory, Addis Ababa University, Faculty of Science, Department of Biology, for seven days prior to the in vivo antimalarial activity testing. In due course, the mice were subjected to live in standard cages with a pelleted diet and water. To trigger a steadily rising infection in mice, blood infected with Plasmodium berghei ANKA strain (approximately 20–30% level of parasitemia) was collected from a donor mice using a syringe supplemented with 0.5% trisodium citrate and diluted in physiological saline to […]. Then, 0.2 mL of inoculum (supposed to have about 2 × 10^7 parasites) was injected into each mouse through the intraperitoneal route to achieve the desired level of infection within a short period of time. After 2 h of post-infection, the mice were carefully weighed using a digital balance and randomly assigned into nine groups where each group contain five mice. Of which, mice assigned as a negative control (Group 1) subjected to the formulation composed of 7% Tween 80, and 3% ethanol in distilled water (2 mL/100 g). In addition, mice which belong to the positive control (Group 2) was treated with 25 mg/kg/day (0.04846 mmol/kg/day) of chloroquine phosphate (CQ). The remaining groups (3–9) were subjected to oral treatment with equimolar amounts of the respective target compounds for four consecutive days. Finally, a blood smear was taken from the tail of the mice in the 5th day (24 h after the last dose), air-dried, fixed with absolute methanol and treated with 6% Giemsa stain. The mean parasitemia level of each group (control and treatment groups) was computed microscopically by counting the number of erythrocytes in four fields (⁓100 erythrocytes per field).

Data set [4] deals with male Swiss albino mice. In words: in vivo oral acute toxicity test. To be noted: for mortality in mice: oral 50, 100, 200 and 300 mg/kg, within 24 h and entire study period (14 days); for visible signs of overt toxicity: oral up to 300 mg/kg, physical and behavioral observations, 14 days. On the procedure: For this purpose, the mice were randomly allocated into six groups each containing six mice. The first five groups of mice (Group 1–5) received each target compound solubilized using 1% gum acacia at a dose of 10, 50, 100, 200 and 300 mg/kg, respectively. The mice in last group (group 6, served as a negative control) were orally treated with the solvent used to dissolve the target compounds (1% gum acacia) at a maximum dose of 1 mL/100 gm of body weight. Each mouse was then monitored for gross changes such as salivation, loss of appetite, lacrimation, hair erection, diarrhea, convulsions, death, and other signs of overt toxicity.

Where [5] appears, read: L. donovani promastigotes, 22 °C, AlamarBlue fluorescence.
The mark [6] stands for this setting: L. donovani promastigotes, 22 °C, AlamarBlue fluorescence, read-out: IC50 values, antipromastigote activity.
[7] abbreviates: read-out: IC50 values, antipromastigote activity, L. donovani promastigotes, 22 °C, AlamarBlue fluorescence.
Where [8] appears, read: po, mice infected with P. berghei ANKA, oral, 48.46 µmol/kg for four days (CQ 25 mg/kg), versus negative control.
The mark [9] stands for this setting: mice infected with P. berghei ANKA, oral, 48.46 µmol/kg for four days (CQ 25 mg/kg).

≈ marks a conversion by molar mass, not a printed value. Where two headings read alike, the source gives them in different places.

On to `O=c1c2ccccc2nc(-c2ccccc2)n1Cc1ccccc1` [III], for which the “IC50, in vitro antileishmanial activity” value in data set [1] is on record as 48.91 µg/mL (≈ 157 µM).

On to `CCCCCCCCCCCCCCCCOP(=O)([O-])OCC[N+](C)(C)C` [Miltefosine, hexadecylphosphocholine, reference compound], for which the “IC50 values, antipromastigote activity” value in data set [2] (setting [5]) was determined as 3.191 ± 0.194 µg/mL (≈ 7.83 µM). In addition, the IC50 (as a rule, the concentration needed to halve the response being measured) in data set [2] (setting [6]) turned out to be 3.19 µg/mL (≈ 7.83 µM).

Consider `Cc1ccccc1-n1c(/C=C/c2ccc(Cl)cc2)nc2ccccc2c1=O` [Compound 7, (E)-2-(4-chlorostyryl)-3-o-tolylquinazolin-4(3H)-one], for which the concentration for half-maximal inhibition (IC50) in data set [2] (setting [7]) amounted to 3.25 ± 0.282 µg/mL (≈ 8.71 µM). Moreover, the inhibition in vivo at 48.46 µmol/kg in data set [3] (setting [8]) is below 50%. Further, in data set [3] (setting [9]), the Mean survival time was determined as 6.9 ± 0.5 days and the “% Parasitemia” value amounted to 35.69 ± 0.69%.

For `COc1cc(/C=C/c2nc3ccccc3c(=O)n2-c2ccc(C)cc2)ccc1O` [Compound 13, (E)-2-(4-hydroxy-3-methoxystyryl)-3-p-tolylquinazolin-4(3H)-one], the IC50 in data set [2] (setting [7]) amounted to 2.27 ± 0.214 µg/mL (≈ 5.89 µM). For the same compound, the inhibition in vivo at 48.46 µmol/kg in data set [3] (setting [8]) is above 50%. For the same compound, in data set [3] (setting [9]), the Mean survival time was 7.9 ± 0.3 days and the “% Parasitemia” value came out at 24.13 ± 0.29%.

For the compound `Cc1ccc(-n2c(/C=C/c3ccc(O)cc3)nc3ccccc3c2=O)cc1` [Compound 12, (E)-2-(4-hydroxystyryl)-3-p-tolylquinazolin-4(3H)-one], the IC50 in data set [2] (setting [7]) is 1.84 ± 0.168 µg/mL (≈ 5.2 µM). Besides, in data set [3] (setting [8]), the inhibition in vivo at 48.46 µmol/kg is above 50%. Moreover, in data set [3] (setting [9]), the Mean survival time was 7.6 ± 1.12 days and the “% Parasitemia” value came to 32 ± 0.5%.

`CCN(CC)CCCC(C)Nc1ccnc2cc(Cl)ccc12` (stereo not drawn) [CQ, chloroquine phosphate, reference compound]: in data set [3], the inhibition in vivo at 48.46 µmol/kg was determined as 100%. Moreover, in data set [3] (setting [9]), the “% Parasitemia” value was 0%.

With `C[C@@H]1[C@H](O)[C@@H](C)/C=C/C=C/C=C/C=C/C=C/C=C/C=C/[C@H](O[C@@H]2O[C@H](C)[C@@H](O)[C@H](N)[C@@H]2O)C[C@@H]2O[C@](O)(C[C@@H](O)C[C@@H](O)[C@H](O)CC[C@@H](O)C[C@@H](O)CC(=O)O[C@H]1C)C[C@H](O)[C@H]2C(=O)O` [Amphotericin B, amphotericin B deoxycholate, reference compound], the IC50 in data set [2] (setting [6]) is 0.046 ± 0.009 µg/mL (≈ 0.0498 µM).

As to `Cc1ccccc1-n1c(/C=C/c2ccc(O)cc2)nc2ccccc2c1=O` [Compound 11, (E)-2-(4-hydroxystyryl)-3-o-tolylquinazolin-4(3H)-one], the IC50 in data set [2] (setting [7]) amounted to 0.185 ± 0.026 µg/mL (≈ 0.522 µM). The inhibition in vivo at 48.46 µmol/kg in data set [3] (setting [8]) was above 50%. Moreover, in data set [3] (setting [9]), the Mean survival time stood at 7.3 ± 0.54 days and the “% Parasitemia” value is on record as 25.27 ± 0.76%.

In the case of `COc1cc(/C=C/c2nc3ccccc3c(=O)n2-c2ccc(C)cc2)ccc1OC(C)=O` [Compound 10, 4-((1E)-2-(3,4-dihydro-4-oxo-3-p-tolylquinazolin-2-yl)vinyl)-2-methoxyphenyl acetate], in data set [2] (setting [6]), the IC50 was 0.196 ± 0.042 µg/mL. Further, in data set [3] (setting [9]), the Mean survival time is 9.8 ± 0.24 days and the “% Parasitemia” value was found to be 16.85 ± 0.39%. In data set [4], the mortality in mice result is “none of the compounds caused mortality” and the “visible signs of overt toxicity” value is reported as “no visible signs of overt toxicity”.

Regarding `O=c1c2ccccc2nc(/C=C/c2ccc([N+](=O)[O-])cc2)n1-c1ccccc1` [Compound 6, (E)-2-(4-nitrostyryl)-3-phenylquinazolin-4(3H)-one], the “IC50 values, antipromastigote activity” value in data set [2] (setting [5]) is recorded as 0.021 ± 0.008 µg/mL (≈ 0.0569 µM). The IC50 in data set [2] (setting [7]) was 0.0212 µg/mL (≈ 0.0574 µM). The inhibition in vivo at 48.46 µmol/kg in data set [3] (setting [8]) is below 50%. Moreover, in data set [3] (setting [9]), the Mean survival time came out at 6.5 ± 0.3 days and the “% Parasitemia” value came to 39.22 ± 0.7%. In data set [4], the mortality in mice entry is “none of the compounds caused mortality” and the “visible signs of overt toxicity” value is listed as “no visible signs of overt toxicity”.

Turning to `CC(=O)Oc1ccc(/C=C/c2nc3ccccc3c(=O)n2-c2ccccc2C)cc1` [Compound 8, 4-((1E)-2-(3,4-dihydro-4-oxo-3-o-tolylquinazolin-2-yl)vinyl)phenyl acetate], the IC50 in data set [2] (setting [7]) came out at 3.33 ± 0.126 µg/mL. Besides, in data set [3] (setting [9]), the Mean survival time turned out to be 9.4 ± 0.37 days and the “% Parasitemia” value is 19.57 ± 0.77%. Moreover, in data set [4], the mortality in mice entry is listed as “none of the compounds caused mortality” and the “visible signs of overt toxicity” value is on record as “no visible signs of overt toxicity”.

The values are drawn from article PMC9716151, “Synthesis, antimalarial, antileishmanial evaluation, and molecular docking study of some 3-aryl-2-styryl substituted-4(3H)-quinazolinone derivatives” (BMC Chemistry, 2022).
